According to patent US11752138B2 (VANDERBILT UNIVERSITY, priority 2020, dated 2023):

target: Human LDHA (Homo sapiens (Human), UniProt P00338); experiment: human LDHA primary biochemical assay (Example 1); conditions: biochemical LDHA inhibitory activity, assay of Example 1
Excerpt: This example describes a human LDHA primary biochemical assay employed in the characterization of a compound of Formula I in an embodiment of the dislcosure.
Test compounds were placed in a Greiner Bio-One (Monroe, N.C.) 1536-well black solid bottom assay plate. 200 millimolar (mM) Tris HCl, pH 7.4, 100 micromolar (μM) EDTA and 0.01% TWEEN-20™, final concentration, was used as the assay buffer. The LDHA reagent was 2 nanomolar (nM) Human LDHA (Meridian Life Science, Inc., Memphis, Tenn.), final concentration, in assay buffer. The substrate reagent was 0.06 mM NADH and 0.2 mM sodium pyruvate, final concentration, in assay buffer. The resazurin/diaphorase coupling reagent was 0.037 mM resazurin and 0.133 milligrams per milliliter (mg/mL) diaphorase, final concentration, in assay buffer. The inhibition of LDHA activity was measured by fluorescence emission. […]

IC50 | Compound
< 100 nM | NS(=O)(=O)c1ccc(Cc2c(-c3ccc(F)c(-c4ccc5c(c4)CCCC5)c3)nn(-c3nc(C(=O)O)cs3)c2CC2CC2)cc1F [Compound 143, 2-(5-(cyclopropylmethyl)-3-(4-fluoro-3-(5,6,7,8-tetrahydronaphthalen-2-yl)phenyl)-4-(3-fluoro-4-sulfamoylbenzyl)-1H-pyrazol-1-yl)thiazole-4-carboxylic acid]
< 100 nM | NS(=O)(=O)c1ccc(Cc2c(-c3ccc(F)c(-c4ccc(Cl)c(F)c4)c3)nn(-c3nc(C(=O)O)cs3)c2CC2CC2)cc1F [Compound 144, 2-(3-(4′-chloro-3′,6-difluoro-[1,1′-biphenyl]-3-yl)-5-(cyclopropylmethyl)-4-(3-fluoro-4-sulfamoylbenzyl)-1H-pyrazol-1-yl)thiazole-4-carboxylic acid]
< 100 nM | CC(C)(C)NC(=O)c1cc(-c2nn(-c3nc(C(=O)O)cs3)c(CC3CC3)c2Cc2ccc([S+](N)(=O)[O-])c(F)c2)ccc1F [Compound 147, 2-(3-(3-(tert-butylcarbamoyl)-4-fluorophenyl)-5-(cyclopropylmethyl)-4-(3-fluoro-4-sulfamoylbenzyl)-1H-pyrazol-1-yl) thiazole-4-carboxylic acid]
< 100 nM | NS(=O)(=O)c1ccc(Cc2c(-c3ccc(F)c(-c4ccc5c(c4)CCC5)c3)nn(-c3nc(C(=O)O)cs3)c2CC2CC2)cc1F [Compound 155, 2-(5-(cyclopropylmethyl)-3-(3-(2,3-dihydro-1H-inden-5-yl)-4-fluorophenyl)-4-(3-fluoro-4-sulfamoylbenzyl)-1H-pyrazol-1-yl)thiazole-4-carboxylic acid]
< 100 nM | NS(=O)(=O)c1ccc(Cc2c(-c3cccc(-c4ccc(C5CC5)cc4)c3)nn(-c3nc(C(=O)O)cs3)c2CC2CC2)cc1F [Compound 183, 2-(3-(4′-cyclopropyl-[1,1′-biphenyl]-3-yl)-5-(cyclopropylmethyl)-4-(3-fluoro-4-sulfamoylbenzyl)-1H-pyrazol-1-yl)thiazole-4-carboxylic acid]
< 100 nM | CC(C)(C)NC(=O)c1cccc(-c2nn(-c3nc(C(=O)O)cs3)c(CC3CC3)c2Cc2ccc([S+](N)(=O)[O-])cc2)c1 [Compound 188, 2-(3-(3-(tert-butylcarbamoyl)phenyl)-5-(cyclopropylmethyl)-4-(4-sulfamoylbenzyl)-1H-pyrazol-1-yl)thiazole-4-carboxylic acid]
< 100 nM | NS(=O)(=O)c1ccc(Cc2c(-c3cccc(-c4nc5ccccc5[nH]4)c3)nn(-c3nc(C(=O)O)cs3)c2CC2CC2)cc1F [Compound 189, 2-(3-(3-(1H-benzo[d]imidazol-2-yl)phenyl)-5-(cyclopropylmethyl)-4-(3-fluoro-4-sulfamoylbenzyl)-1H-pyrazol-1-yl)thiazole-4-carboxylic acid]
< 100 nM | Cc1cc(-c2cc(-c3nn(-c4nc(C(=O)O)cs4)c(CC4CC4)c3Cc3ccc(S(N)(=O)=O)c(F)c3)ccc2F)ccc1F [Compound 195, 2-(5-(cyclopropylmethyl)-3-(4′,6-difluoro-3′-methyl-[1,1′-biphenyl]-3-yl)-4-(3-fluoro-4-sulfamoylbenzyl)-1H-pyrazol-1-yl)thiazole-4-carboxylic acid]
< 100 nM | NS(=O)(=O)c1ccc(Cc2c(-c3ccc(F)c(N4CCCC4=O)c3)nn(-c3nc(C(=O)O)cs3)c2CC2CC2)cc1F [Compound 202, 2-(5-(cyclopropylmethyl)-3-(4-fluoro-3-(2-oxopyrrolidin-1-yl)phenyl)-4-(3-fluoro-4-sulfamoylbenzyl)-1H-pyrazol-1-yl)thiazole-4-carboxylic acid]
< 100 nM | Cc1ccc(-c2cccc(-c3nn(-c4nc(C(=O)O)cs4)c(CC4CC4)c3Cc3ccc(S(N)(=O)=O)c(F)c3)c2)nc1 [Compound 203, 2-(5-(cyclopropylmethyl)-4-(3-fluoro-4-sulfamoylbenzyl)-3-(3-(5-methylpyridin-2-yl)phenyl)-1H-pyrazol-1-yl)thiazole-4-carboxylic acid]

Continued, compound first:

Compound | IC50
CC(C)c1ccc(-c2cc(-c3nn(-c4nc(C(=O)O)cs4)c(CC4CC4)c3Cc3ccc(S(N)(=O)=O)c(F)c3)ccc2F)cc1 [Compound 142, 2-(5-(cyclopropylmethyl)-3-(6-fluoro-4′-isopropyl-[1,1′-biphenyl]-3-yl)-4-(3-fluoro-4-sulfamoylbenzyl)-1H-pyrazol-1-yl)thiazole-4-carboxylic acid] | 100 to 1000 nM
NS(=O)(=O)c1ccc(Cc2c(-c3cccc(C(=O)N4CCCC4)c3)nn(-c3nc(C(=O)O)cs3)c2CC2CC2)cc1 [Compound 145, 2-(5-(cyclopropylmethyl)-3-(3-(pyrrolidine-1-carbonyl)phenyl)-4-(4-sulfamoylbenzyl)-1H-pyrazol-1-yl)thiazole-4-carboxylic acid] | < 100 nM
NS(=O)(=O)c1ccc(Cc2c(-c3ccc(F)c(C4=CCCCC4)c3)nn(-c3nc(C(=O)O)cs3)c2CC2CC2)cc1F [Compound 146, 2-(5-(cyclopropylmethyl)-3-(6-fluoro-2′,3′,4′,5′-tetrahydro-[1,1′-biphenyl]-3-yl)-4-(3-fluoro-4-sulfamoylbenzyl)-1H-pyrazol-1-yl)thiazole-4-carboxylic acid] | < 100 nM
NS(=O)(=O)c1ccc(Cc2c(-c3ccc(F)c(-c4cccc(Cl)c4)c3)nn(-c3nc(C(=O)O)cs3)c2CC2CC2)cc1F [Compound 149, 2-(3-(3′-chloro-6-fluoro-[1,1′-biphenyl]-3-yl)-5-(cyclopropylmethyl)-4-(3-fluoro-4-sulfamoylbenzyl)-1H-pyrazol-1-yl)thiazole-4-carboxylic acid] | < 100 nM
N[S+](=O)([O-])c1ccc(Cc2c(-c3ccc(F)c(C(=O)N4CCCC4)c3)nn(-c3nc(C(=O)O)cs3)c2CC2CC2)cc1F [Compound 154] | < 100 nM
NS(=O)(=O)c1ccc(Cc2c(-c3ccc(F)c(-c4nc5ccccc5[nH]4)c3)nn(-c3nc(C(=O)O)cs3)c2CC2CC2)cc1F [Compound 160, 2-(3-(3-(1H-benzo[d]imidazol-2-yl)-4-fluorophenyl)-5-(cyclopropylmethyl)-4-(3-fluoro-4-sulfamoylbenzyl)-1H-pyrazol-1-yl)thiazole-4-carboxylic acid] | < 100 nM
COc1ccc(-c2cc(-c3nn(-c4nc(C(=O)O)cs4)c(CC4CC4)c3Cc3ccc(S(N)(=O)=O)c(F)c3)ccc2F)cc1Cl [Compound 191, 2-(3-(3′-chloro-6-fluoro-4′-methoxy-[1,1′-biphenyl]-3-yl)-5-(cyclopropylmethyl)-4-(3-fluoro-4-sulfamoylbenzyl)-1H-pyrazol-1-yl)thiazole-4-carboxylic acid] | < 100 nM
CN(C)c1cccc(-c2cc(-c3nn(-c4nc(C(=O)O)cs4)c(CC4CC4)c3Cc3ccc(S(N)(=O)=O)c(F)c3)ccc2F)c1 [Compound 194, 2-(5-(cyclopropylmethyl)-3-(3′-(dimethylamino)-6-fluoro-[1,1′-biphenyl]-3-yl)-4-(3-fluoro-4-sulfamoylbenzyl)-1H-pyrazol-1-yl)thiazole-4-carboxylic acid] | < 100 nM
NS(=O)(=O)c1ccc(Cc2c(-c3ccc(F)c(C4=CCCO4)c3)nn(-c3nc(C(=O)O)cs3)c2CC2CC2)cc1F [Compound 197, 2-(5-(cyclopropylmethyl)-3-(3-(4,5-dihydrofuran-2-yl)-4-fluorophenyl)-4-(3-fluoro-4-sulfamoylbenzyl)-1H-pyrazol-1-yl)thiazole-4-carboxylic acid] | < 100 nM
Cc1ccc(-c2cccc(-c3nn(-c4nc(C(=O)O)cs4)c(CC4CC4)c3Cc3ccc(S(N)(=O)=O)c(F)c3)c2)cc1 [Compound 198, 2-(5-(cyclopropylmethyl)-4-(3-fluoro-4-sulfamoylbenzyl)-3-(4′-methyl-[1,1′-biphenyl]-3-yl)-1H-pyrazol-1-yl)thiazole-4-carboxylic acid] | < 100 nM
N#Cc1cccc(-c2cc(-c3nn(-c4nc(C(=O)O)cs4)c(CC4CC4)c3Cc3ccc(S(N)(=O)=O)c(F)c3)ccc2F)c1 [Compound 200, 2-(3-(3′-cyano-6-fluoro-[1,1′-biphenyl]-3-yl)-5-(cyclopropylmethyl)-4-(3-fluoro-4-sulfamoylbenzyl)-1H-pyrazol-1-yl)thiazole-4-carboxylic acid] | < 100 nM
N#Cc1ccc(-c2cc(-c3nn(-c4nc(C(=O)O)cs4)c(CC4CC4)c3Cc3ccc(S(N)(=O)=O)c(F)c3)ccc2F)cc1 [Compound 201, 2-(3-(4′-cyano-6-fluoro-[1,1′-biphenyl]-3-yl)-5-(cyclopropylmethyl)-4-(3-fluoro-4-sulfamoylbenzyl)-1H-pyrazol-1-yl)thiazole-4-carboxylic acid] | < 100 nM
Cc1ccc(-c2cccc(-c3nn(-c4nc(C(=O)O)cs4)c(CC4CC4)c3Cc3ccc(S(N)(=O)=O)c(F)c3)c2)cn1 [Compound 204, 2-(5-(cyclopropylmethyl)-4-(3-fluoro-4-sulfamoylbenzyl)-3-(3-(6-methylpyridin-3-yl)phenyl)-1H-pyrazol-1-yl)thiazole-4-carboxylic acid] | < 100 nM
CC(C)c1ccc(-c2cncc(-c3nn(-c4nc(C(=O)O)cs4)c(CC4CC4)c3Cc3ccc(S(N)(=O)=O)c(F)c3)c2)cc1 [Compound 210, 2-[5-(cyclopropylmethyl)-4-[(3-fluoro-4-sulfamoylphenyl)methyl]-3-[5-(4-isopropylphenyl)pyridin-3-yl]pyrazol-1-yl]-1,3-thiazole-4-carboxylic acid] | < 100 nM
Cc1cc(-c2cc(-c3nn(-c4nc(C(=O)O)cs4)c(CC4CC4)c3Cc3ccc(S(N)(=O)=O)c(F)c3)ccc2F)ccc1C(C)C [Compound 213, 2-[5-(cyclopropylmethyl)-3-[4-fluoro-3-(4-isopropyl-3-methylphenyl)phenyl]-4-[(3-fluoro-4-sulfamoylphenyl)methyl]pyrazol-1-yl]-1,3-thiazole-4-carboxylic acid] | < 100 nM
